Assay results from patent US20120197004A1, “NOVEL ANTI-MICROBIAL PEPTIDOMIMETIC COMPOUNDS AND METHODS TO CALCULATE ANTI-MICROBIAL ACTIVITY” (priority 2006, published 2012).
≈ marks a conversion by molar mass, not a printed value. Where two headings read alike, the source gives them in different places. Where a SMILES comes first, the peptide text is derived from it. [ ]: non-standard residue; d: D form. ξ: configuration not given here. Oic = O=C(O)[C@@H]1C[C@@H]2CCCC[C@@H]2N1; Tic = O=C(O)[C@@H]1Cc2ccccc2CN1; ξTic = O=C(O)C1Cc2ccccc2CN1; ξOic = O=C(O)C1CC2CCCCC2N1; Orn = NCCC[C@H](N)C(=O)O; βAla = NCCC(=O)O

Key:
[1] = system: B. melitensis 16M
[2] = system: Bacillus subtillis (ATCC 43223); conditions: for MIC Bacillus Subtillis: ATCC 43223
[3] = system: Staphylococcus aureus Methicillin/Gentamicin/Tetracycline Resistant (ATCC 33592); conditions: for Minimum Inhibitory Concentration Staphylococcus aureus ME/GM/TC resistant: in vitro MIC, tested at 100, 30, 10, 3, 1, 0.3 and 0.1 μM in 1% DMSO
[4] = system: red blood cells; test: Hemolytic studies; conditions: 100 μM
[5] = Metabolic stability, rat liver microsomes
[6] = Metabolic stability, dog liver microsomes
[7] = Metabolic stability, monkey liver microsomes
[8] = Maximum tolerated dose in mouse model; assay type: in vivo; conditions: IP, dosed daily day 1-6
Procedure: Maximum Tolerated Dose: Six compounds were evaluated in an in vivo mouse model to determine the maximum tolerated dose for each compound by BIOCON, Inc. using the following protocol. For each compound 3 dose concentrations (1/5/25 mg/kg or 5/25/125 mg/kg) were administered IP, 1-2 times per day as split doses. Day 0 weigh the animals, day 1-6 dose daily and observe animals, day 7 weigh, euthanasia followed by necrotize to examine abdominal cavity.

[9] = Metabolic stability, human liver microsomes; conditions: for % remaining at time T, Human Liver: 0.5 mg/mL microsomes
[10] = system: Salmonella typhimurium (ATCC 13311); conditions: for MIC Salmonella typhimurium: ATCC 13311
[11] = system: F. tularensis SCHU-S4
[12] = Metabolic stability, mouse liver microsomes
[13] = system: Mycobacterium ranae (ATCC 110); conditions: for MIC Mycobacterium ranae / Minimum Inhibitory Concentration Mycobacterium ranae: ATCC 110
[14] = in vitro; conditions: mouse, microsomes, pH 7.4
[15] = in vitro; conditions: monkey, microsomes, pH 7.4
[16] = in vitro; conditions: dog, microsomes, pH 7.4
[17] = in vitro; conditions: human, microsomes, pH 7.4
[18] = system: red blood cells
[19] = in vitro; conditions: rat, microsomes, pH 7.4
[20] = system: mouse cutaneous injury; test: Mouse skin wound healing model; assay type: in vivo, CD-1 derived male mice; conditions: topical once daily for 10 days; test substances 100 μg/mouse, CGS-21680 10 μg/mouse
Procedure: In-vivo assays: Selected compounds were evaluated in an in-vivo mouse skin wound healing model by MDS Pharma Services using the following protocol. Groups of CD-1 derived male mice (n=5) weighting 24±2 g were used. Under hexobarbitol (90 mg/kg, IP) anesthesia, the shoulder and back region of each animal was shaved. A sharp punch (ID 12 mm) was applied to remove the skin including panniculus carnosus and adherent tissues. […] The percent closure of the wound (%) was calculated, and wound half-closure time (CT50) was analyzed by linear regression using Graph-Prism (Graph Software USA). One-way ANOVA followed by Dunnett's test was applied for comparison between the treated and its corresponding vehicle groups at each measurement time point. Differences are considered statistically significant at P<0.05.^41

[21] = system: Salmonella typhimurium strain LT2; test: In vivo challenge, gram-negative infection; conditions: Balb/c mice, intraperitoneal challenge 2.5×10^6; 5 mg/kg initial, then 2.5 mg/kg morning and afternoon
[22] = liver microsomes, 1 μM, T = 60 min
[23] = Minimal Inhibitory Concentration, tested at 100-0.1 in 1% DMSO

CC(=O)NCCC(=O)N[C@@H](Cc1ccccc1)C(=O)N1Cc2ccccc2CC1C(=O)N1C(C(=O)NCCC(=O)N[C@@H](CCCCN)C(=O)N2Cc3ccccc3CC2C(=O)N2C(C(=O)NCCC(=O)N[C@@H](Cc3ccccc3)C(=O)N3Cc4ccccc4CC3C(=O)N3C(C(=O)NCCC(=O)N[C@@H](CCCCN)C(=O)N4Cc5ccccc5CC4C(=O)N[C@@H](CCCCN)C(=O)N[C@@H](CCCCN)C(=O)N[C@@H](CCCCN)C(=O)N[C@@H](CCCCN)C(N)=O)CC4CCCCC43)CC3CCCCC32)CC2CCCCC21 (stereo partly drawn) [FKAB-1Gd1, Ac-βAla-F-Tic-Oic-βAla-K-Tic-Oic-βAla-F-Tic-Oic-βAla-K-Tic-KKKK-CONH2] (Ac-[βAla]F[ξTic][ξOic][βAla]K[ξTic][ξOic][βAla]F[ξTic][ξOic][βAla]K[ξTic]KKKK-NH2)
Minimum Inhibitory Concentration B. melitensis 16M [1]: >500 µg/mL
MIC Bacillus Subtillis [2]: 1.00 µM (≈ 2.5 µg/mL)
MIC Staphylococcus aureus ME/GM/TC resistant ([3]; ATCC 33592): 10.00 µM (≈ 25 µg/mL)
% hemolysis 100/25 μM (first value) [4]: 24.4%/
metabolic stability T = 60 min rat [5, 22]: high
remaining at 0.25 h, 1 μM ([5]; rat, microsomes, pH 7.4): 82%
remaining at 0.5 h, 1 μM ([5]; rat, microsomes, pH 7.4): 79%
remaining at 1 h, 1 μM ([5]; rat, microsomes, pH 7.4): 92%
% remaining, Dog Liver T = 15 ([6]; T = 15 min, 1 μM, 0.5 mg/mL microsomes): 84%
remaining at 0.5 h, 1 μM ([6]; dog, microsomes, pH 7.4): 78%
remaining at 1 h, 1 μM ([6]; dog, microsomes, pH 7.4): 71%
metabolic stability T = 60 min dog [6, 22]: Moderate
metabolic stability T = 60 min monkey [7, 22]: high
remaining at 0.25 h, 1 μM ([7]; monkey, microsomes, pH 7.4): 90%
remaining at 0.5 h, 1 μM ([7]; monkey, microsomes, pH 7.4): 87%
remaining at 1 h, 1 μM ([7]; monkey, microsomes, pH 7.4): 89%
Maximum Tolerated Dose/Toxicity 125 mg/kg ([8]; 125 mg/kg): 5 out 5 animals died
remaining at 0.25 h, 1 μM ([9]; human, microsomes, pH 7.4): 94%
metabolic stability T = 60 min human [9, 22]: high
% remaining at time T, Human Liver ([9]; second human column (T = 30 min, head not given), 1 μM): 99%
% remaining at time T, Human Liver ([9]; third human column (T = 60 min, head not given), 1 μM): 97%
MIC Salmonella typhimurium [10]: 10 µM (≈ 25 µg/mL)
Minimum Inhibitory Concentration F. tularensis SCHU-S4 [11]: 500 µg/mL
metabolic stability T = 60 min mouse [12, 22]: moderate
remaining at 0.25 h, 1 μM ([12]; mouse, microsomes, pH 7.4): 90%
remaining at 0.5 h, 1 μM ([12]; mouse, microsomes, pH 7.4): 64%
remaining at 1 h, 1 μM ([12]; mouse, microsomes, pH 7.4): 53%
MIC Mycobacterium ranae [13]: 1.00 µM (≈ 2.5 µg/mL)
Minimum Inhibitory Concentration Mycobacterium ranae [13]: 1 µM

CC(=O)NCC(=O)N1Cc2ccccc2CC1C(=O)N1C(C(=O)N[C@@H](CCCCN)C(=O)N2Cc3ccccc3CC2C(=O)N2C(C(=O)NCC(=O)N3Cc4ccccc4CC3C(=O)N3C(C(=O)N[C@@H](CCCCN)C(=O)N4Cc5ccccc5CC4C(=O)N[C@@H](CCCCN)C(=O)N[C@@H](CCCCN)C(=O)N[C@@H](CCCCN)C(=O)N[C@@H](CCCCN)C(N)=O)CC4CCCCC43)CC3CCCCC32)CC2CCCCC21 (stereo partly drawn) [FKAB-1Ge, Ac-G-Tic-Oic-K-Tic-Oic-G-Tic-Oic-K-Tic-KKKK-CONH2] (Ac-G[ξTic][ξOic]K[ξTic][ξOic]G[ξTic][ξOic]K[ξTic]KKKK-NH2)
remaining at 0.25 h, 1 μM [14]: 85%
remaining at 0.5 h, 1 μM [14]: 20%
remaining at 1 h, 1 μM [14]: 11%
MIC Bacillus Subtillis [2]: 1.00 µM (≈ 2.03 µg/mL)
MIC Staphylococcus aureus ME/GM/TC resistant [3, 23]: 10.00 µM (≈ 20.3 µg/mL)
Minimum Inhibitory Concentration Staphylococcus aureus ME/GM/TC resistant [3]: 10 µM
remaining at 0.25 h, 1 μM [15]: 56%
remaining at 0.5 h, 1 μM [15]: 73%
Maximum Tolerated Dose/Toxicity 1 mg/kg [8]: no observed toxicity
remaining at 0.5 h, 1 μM [16]: 43%
remaining at 1 h, 1 μM [16]: 54%
remaining at 0.25 h, 1 μM [17]: 114%
MIC Salmonella typhimurium [10]: 10 µM (≈ 20.3 µg/mL)
% hemolysis 100/25 μM (first value) [18]: 26.7%/
% hemolysis 100/25 μM (second value) [18]: 9.2%
MIC Mycobacterium ranae [13]: 3.00 µM (≈ 6.1 µg/mL)
remaining at 0.25 h, 1 μM [19]: 69%
remaining at 0.5 h, 1 μM [19]: 73%
remaining at 1 h, 1 μM [19]: 95%

CC(=O)NCC(=O)N[C@@H](Cc1ccccc1)C(=O)N1Cc2ccccc2C[C@H]1C(=O)N1[C@H](C(=O)NCC(=O)N[C@@H](CCCN)C(=O)N2Cc3ccccc3C[C@H]2C(=O)N2[C@H](C(=O)NCC(=O)N[C@@H](Cc3ccccc3)C(=O)N3Cc4ccccc4C[C@H]3C(=O)N3[C@H](C(=O)NCC(=O)N[C@@H](CCCN)C(=O)N4Cc5ccccc5C[C@H]4C(=O)N[C@@H](CCCN)C(=O)N[C@@H](CCCN)C(=O)N[C@@H](CCCN)C(=O)N[C@@H](CCCN)C(N)=O)C[C@@H]4CCCC[C@@H]43)C[C@@H]3CCCC[C@@H]32)C[C@@H]2CCCC[C@@H]21 [FKAB-1Gp, Ac-GF-Tic-Oic-G-Orn-Tic-Oic-GF-Tic-Oic-G-Orn-Tic-Orn-Orn-Orn-Orn-CONH2] (Ac-GF[Tic][Oic]G[Orn][Tic][Oic]GF[Tic][Oic]G[Orn][Tic][Orn][Orn][Orn][Orn]-NH2)
p(MIC) Bacillus Subtillis ([2]; -log(MIC)): 6.52
MIC Bacillus Subtillis [2]: 0.30 µM (≈ 0.707 µg/mL)
p(MIC) Staphylococcus aureus ME/GM/TC resistant ([3]; -log(MIC)): 5.52
Actual Bioactivity ([3]; p(MIC) used in Staphylococcus aureus QSAR model): 5.520
CT50 (wound half-closure time) [20]: 5.7 days
wound closure Day 3 [20]: 38.8%
wound closure Day 5 [20]: 51.2%
wound closure Day 7 [20]: 67.2%
wound closure Day 9 [20]: 72.8%
wound closure Day 11 [20]: 81.1%
p(MIC) Salmonella typhimurium ([10]; -log(MIC)): 5.52
MIC Salmonella typhimurium [10]: 3 µM (≈ 7.07 µg/mL)
morbidity (survival compared to control group) [21]: Accelerated morbidity
Actual Bioactivity [13]: 5.000
MIC Mycobacterium ranae [13]: 10.00 µM (≈ 23.6 µg/mL)
Minimum Inhibitory Concentration Mycobacterium ranae [13]: 10 µM

CC(C)C[C@H](NC(=O)[C@@H](N)CCCCN)C(=O)N1Cc2ccccc2CC1C(=O)N1C(C(=O)NCC(=O)N[C@@H](CCCCN)C(=O)N2Cc3ccccc3CC2C(=O)N2C(C(=O)NCC(=O)N[C@@H](Cc3ccccc3)C(=O)N3Cc4ccccc4CC3C(=O)N3C(C(=O)NCC(=O)N[C@@H](CCCCN)C(=O)N4Cc5ccccc5CC4C(=O)N[C@@H](CCCCN)C(=O)N[C@@H](CCCCN)C(=O)N[C@@H](CCCCN)C(=O)N[C@@H](CCCCN)C(N)=O)CC4CCCCC43)CC3CCCCC32)CC2CCCCC21 (stereo partly drawn) [FKAB-1Gb, NH2--KL-Tic-Oic-GK-Tic-Oic-GF-Tic-Oic-GK-Tic-KKKK-CONH2] (H-KL[ξTic][ξOic]GK[ξTic][ξOic]GF[ξTic][ξOic]GK[ξTic]KKKK-NH2)
remaining at 0.25 h, 1 μM [14]: 87%
remaining at 0.5 h, 1 μM [14]: 73%
remaining at 1 h, 1 μM [14]: 70%
MIC Bacillus Subtillis [2]: 1.00 µM (≈ 2.44 µg/mL)
MIC Staphylococcus aureus ME/GM/TC resistant [3, 23]: 30.00 µM (≈ 73.1 µg/mL)
Minimum Inhibitory Concentration Staphylococcus aureus ME/GM/TC resistant [3]: 30 µM
remaining at 0.25 h, 1 μM [15]: 86%
remaining at 0.5 h, 1 μM [15]: 87%
remaining at 1 h, 1 μM [15]: 97%
Maximum Tolerated Dose/Toxicity 1 mg/kg [8]: no observed toxicity
remaining at 0.5 h, 1 μM [16]: 99%
remaining at 1 h, 1 μM [16]: 81%
remaining at 0.25 h, 1 μM [17]: 98%
MIC Salmonella typhimurium [10]: 3 µM (≈ 7.31 µg/mL)
% hemolysis 100/25 μM (first value) [18]: 43.6%/
% hemolysis 100/25 μM (second value) [18]: 24.9%
MIC Mycobacterium ranae [13]: 3.00 µM (≈ 7.31 µg/mL)
Minimum Inhibitory Concentration Mycobacterium ranae [13]: 3 µM
remaining at 0.25 h, 1 μM [19]: 84%
remaining at 0.5 h, 1 μM [19]: 84%
remaining at 1 h, 1 μM [19]: 91%
